Active and inactive are the calls of the source.
Key:
[1] = molecular target: Tyrosyl-DNA phosphodiesterase 2 (Homo sapiens, UniProt O95551); assay: human TDP2 enzyme inhibitors, dose response, biochemical, epi absorbance, IC50 (AID 743297)
Hexokinase HKDC1 = molecular target: T1, Hexokinase HKDC1 (Homo sapiens, UniProt Q2TB90); assay: HKDC1 hexokinase inhibitors, dose response, biochemical, W721R variant (AID 504729); type: functional
T1 sequence (Q2TB90 whole entry): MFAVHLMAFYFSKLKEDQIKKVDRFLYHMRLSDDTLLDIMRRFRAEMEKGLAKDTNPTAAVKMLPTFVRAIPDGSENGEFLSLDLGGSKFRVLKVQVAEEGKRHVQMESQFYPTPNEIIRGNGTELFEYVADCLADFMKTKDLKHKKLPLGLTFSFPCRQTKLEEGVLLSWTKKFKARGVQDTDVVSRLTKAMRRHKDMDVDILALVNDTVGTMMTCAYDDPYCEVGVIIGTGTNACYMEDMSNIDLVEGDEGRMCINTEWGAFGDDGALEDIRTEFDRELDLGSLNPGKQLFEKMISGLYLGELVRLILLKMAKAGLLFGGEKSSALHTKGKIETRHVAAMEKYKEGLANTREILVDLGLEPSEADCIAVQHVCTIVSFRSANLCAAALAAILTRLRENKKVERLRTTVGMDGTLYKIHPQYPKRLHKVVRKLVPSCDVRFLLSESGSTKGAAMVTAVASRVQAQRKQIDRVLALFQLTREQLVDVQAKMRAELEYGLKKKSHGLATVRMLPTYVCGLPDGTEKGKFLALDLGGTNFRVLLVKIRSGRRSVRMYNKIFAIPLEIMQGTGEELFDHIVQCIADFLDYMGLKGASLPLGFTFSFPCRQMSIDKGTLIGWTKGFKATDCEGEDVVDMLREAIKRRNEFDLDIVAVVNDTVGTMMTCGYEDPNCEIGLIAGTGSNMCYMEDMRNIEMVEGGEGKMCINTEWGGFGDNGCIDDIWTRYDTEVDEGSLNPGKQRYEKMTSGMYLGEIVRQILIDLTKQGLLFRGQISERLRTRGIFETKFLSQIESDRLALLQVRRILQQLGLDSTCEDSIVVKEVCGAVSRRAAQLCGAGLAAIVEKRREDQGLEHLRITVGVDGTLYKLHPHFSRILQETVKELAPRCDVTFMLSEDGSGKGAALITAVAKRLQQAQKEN

Genome polyprotein = Genome polyprotein (dengue virus type 2, UniProt P29990); assay: Dengue-2 NS5 methyltransferase inhibitors, primary screen, biochemical, confirmation dose response (AID 588689); type: functional
Mu-type opioid receptor = Mu-type opioid receptor (Homo sapiens, UniProt P35372); type: functional, cell-based;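 further: U2OS cells with beta-arrestin recruitment to OPRM1 by beta-gal complementation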
[2] = molecular target: 5-hydroxytryptamine receptor 2A (Mus musculus, UniProt P35363); type: functional, cell-based;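 further: CHO-K1 cells with tagged receptor and beta-arrestin; agonist potency measured as compound-induced activation of the receptor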
Vero [3] = assay: cells; type: functional; details: Chlorocebus sabaeus
BHK-21 = assay: BHK-21 cell toxicity, dose response, cytotoxicity control, plate reader, cherry-pick samples (AID 687030); type: functional, cell-based; details: Mesocricetus auratus
Vero [4] = assay: Vero cell toxicity, dose response, cytotoxicity control, plate reader, cherry-pick samples (AID 687020); type: functional, cell-based; details: Chlorocebus sabaeus
A549 = assay: A549 cell toxicity, dose response, cytotoxicity control, plate reader, cherry-pick samples (AID 687028); type: functional, cell-based; details: Homo sapiens
Protein skinhead-1 = molecular target: T2, Protein skinhead-1 (Caenorhabditis elegans, UniProt P34707); type: functional
T2 sequence (P34707 whole entry): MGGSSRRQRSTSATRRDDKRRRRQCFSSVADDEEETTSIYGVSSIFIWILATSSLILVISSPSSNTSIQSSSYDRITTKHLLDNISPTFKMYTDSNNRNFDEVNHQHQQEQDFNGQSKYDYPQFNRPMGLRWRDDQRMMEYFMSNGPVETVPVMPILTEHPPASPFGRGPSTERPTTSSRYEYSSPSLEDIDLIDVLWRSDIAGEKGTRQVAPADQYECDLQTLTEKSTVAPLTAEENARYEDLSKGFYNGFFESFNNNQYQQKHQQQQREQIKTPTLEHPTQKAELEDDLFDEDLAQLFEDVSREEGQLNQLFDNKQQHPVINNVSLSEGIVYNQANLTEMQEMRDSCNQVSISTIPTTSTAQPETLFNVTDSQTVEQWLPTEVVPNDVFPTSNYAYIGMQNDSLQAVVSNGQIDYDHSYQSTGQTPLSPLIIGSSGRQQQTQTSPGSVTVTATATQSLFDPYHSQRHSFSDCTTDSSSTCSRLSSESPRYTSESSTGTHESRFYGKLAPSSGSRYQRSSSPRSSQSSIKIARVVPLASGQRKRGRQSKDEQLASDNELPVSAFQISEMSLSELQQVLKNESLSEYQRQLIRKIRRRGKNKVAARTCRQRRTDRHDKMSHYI

[5] = molecular target: T3, Polyadenylate-binding protein 1 (Homo sapiens, UniProt P11940); assay: PABP1 MLLE–PAM2 interaction inhibitors, dose response, miRNA deadenylation inhibitor project, biochemical, fluorescence polarization, Cy5-PAM2 peptide, secondary (AID 602260); type: functional; details: read-out: IC50_Mean
[6] = molecular target: Botulinum neurotoxin type F (Clostridium botulinum, UniProt P30996); assay: High-throughput multiplex microsphere dose response for inhibitors of toxin protease, specifically Botulinum neurotoxin light chain F protease, compounds from Cherry Pick 02.; type: functional; details: read-out: EC50_MICROM
[7] = molecular target: T3, Polyadenylate-binding protein 1; assay: PABP1 MLLE–PAM2 binding inhibitor potency, dose response, biochemical, fluorescence polarization, FITC-PAM2 peptide (AID 602259); type: functional; details: read-out: IC50_Mean
[8] = molecular target: T4, Low molecular weight phosphotyrosine protein phosphatase (Homo sapiens, UniProt P24666); type: functional; details: read-out: IC50_Mean;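 further: Dose-response confirmation assay measuring inhibition of LMPTP enzyme activity by fluorescence intensity read-out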
T4 sequence (P24666 whole entry): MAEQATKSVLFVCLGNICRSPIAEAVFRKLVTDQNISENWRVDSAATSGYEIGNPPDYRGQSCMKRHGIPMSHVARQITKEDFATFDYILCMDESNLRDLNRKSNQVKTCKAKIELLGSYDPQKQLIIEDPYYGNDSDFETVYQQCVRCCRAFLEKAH

[9] = molecular target: Dual specificity protein phosphatase 3 (Homo sapiens, UniProt P51452); assay: VHR phosphatase inhibition, dose response, selectivity assay for STEP inhibitor project, biochemical (AID 602374); type: functional; details: read-out: IC50_Mean
[10] = molecular target: Tyrosine-protein phosphatase non-receptor type 5 (Homo sapiens, UniProt P54829); assay: STEP phosphatase inhibitors, confirmation, biochemical, fluorescence intensity, uHTS hits (AID 602372); type: functional; details: read-out: IC50_Mean
[11] = molecular target: T5, Tyrosine-protein phosphatase non-receptor type 22 (Homo sapiens, UniProt Q9Y2R2); assay: PTPN22 phosphatase inhibition, dose response, selectivity assay for STEP inhibitor project, biochemical (AID 624241); type: functional
T5 sequence (Q9Y2R2 whole entry): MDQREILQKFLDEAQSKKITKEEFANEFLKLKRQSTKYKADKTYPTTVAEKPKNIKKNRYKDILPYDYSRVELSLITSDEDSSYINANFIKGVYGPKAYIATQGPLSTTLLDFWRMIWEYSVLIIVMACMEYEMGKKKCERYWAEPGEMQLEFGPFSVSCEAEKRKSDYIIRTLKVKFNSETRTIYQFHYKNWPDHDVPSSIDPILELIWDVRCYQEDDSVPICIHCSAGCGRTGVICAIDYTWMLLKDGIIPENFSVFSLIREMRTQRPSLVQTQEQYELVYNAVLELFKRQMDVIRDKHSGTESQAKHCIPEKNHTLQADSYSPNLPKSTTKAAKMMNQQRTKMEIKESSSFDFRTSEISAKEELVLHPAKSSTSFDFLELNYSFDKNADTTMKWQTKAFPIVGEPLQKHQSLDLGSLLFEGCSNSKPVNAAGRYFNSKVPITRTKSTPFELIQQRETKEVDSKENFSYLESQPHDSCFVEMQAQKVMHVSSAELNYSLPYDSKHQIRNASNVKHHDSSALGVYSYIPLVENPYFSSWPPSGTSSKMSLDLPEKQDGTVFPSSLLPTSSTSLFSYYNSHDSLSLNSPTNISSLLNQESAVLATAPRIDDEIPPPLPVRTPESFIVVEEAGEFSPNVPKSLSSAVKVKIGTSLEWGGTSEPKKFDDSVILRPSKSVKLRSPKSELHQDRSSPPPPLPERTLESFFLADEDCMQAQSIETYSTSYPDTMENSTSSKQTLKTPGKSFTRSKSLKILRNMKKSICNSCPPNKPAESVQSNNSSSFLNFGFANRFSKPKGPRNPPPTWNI

[12] = molecular target: Tyrosine-protein phosphatase non-receptor type 11 (Homo sapiens, UniProt Q06124); assay: SHP2 phosphatase inhibition, dose response, selectivity assay for STEP inhibitor project, biochemical (AID 602367); type: functional; details: read-out: IC50_Mean
[13] = molecular target: T6, Carboxy-terminal domain RNA polymerase II polypeptide A small phosphatase 1 (Homo sapiens, UniProt Q9GZU7); assay: inhibitors of CTDSP1, concentration-response testing, biochemical assay, absorbance-based, actives from ultra-high-throughput screening (AID 540297); type: functional
T6 sequence (Q9GZU7 whole entry): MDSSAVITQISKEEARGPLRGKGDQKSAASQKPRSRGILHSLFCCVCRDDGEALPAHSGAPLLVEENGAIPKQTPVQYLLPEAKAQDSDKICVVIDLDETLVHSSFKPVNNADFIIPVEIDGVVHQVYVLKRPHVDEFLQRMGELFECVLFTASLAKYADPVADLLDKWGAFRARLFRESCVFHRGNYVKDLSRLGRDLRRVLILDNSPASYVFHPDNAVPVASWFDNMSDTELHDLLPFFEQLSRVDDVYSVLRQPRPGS

T3 sequence (P11940 whole entry): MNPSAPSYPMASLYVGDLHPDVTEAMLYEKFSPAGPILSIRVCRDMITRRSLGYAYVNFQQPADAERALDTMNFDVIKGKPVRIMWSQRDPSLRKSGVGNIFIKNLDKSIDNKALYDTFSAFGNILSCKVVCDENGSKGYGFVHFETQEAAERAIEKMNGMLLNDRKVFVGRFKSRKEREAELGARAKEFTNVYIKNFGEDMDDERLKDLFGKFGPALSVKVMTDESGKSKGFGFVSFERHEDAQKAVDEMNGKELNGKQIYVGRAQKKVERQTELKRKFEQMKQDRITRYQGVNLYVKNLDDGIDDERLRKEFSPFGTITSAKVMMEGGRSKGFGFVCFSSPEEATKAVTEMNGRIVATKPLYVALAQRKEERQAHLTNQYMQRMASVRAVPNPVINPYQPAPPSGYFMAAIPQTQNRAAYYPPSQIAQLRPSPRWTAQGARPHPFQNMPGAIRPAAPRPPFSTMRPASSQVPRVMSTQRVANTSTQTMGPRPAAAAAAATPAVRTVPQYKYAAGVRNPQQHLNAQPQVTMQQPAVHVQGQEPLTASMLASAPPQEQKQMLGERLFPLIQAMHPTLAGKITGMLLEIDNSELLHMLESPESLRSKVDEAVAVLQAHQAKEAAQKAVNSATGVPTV
Chain of Genome polyprotein (P29990 2492-3391 limits assumed): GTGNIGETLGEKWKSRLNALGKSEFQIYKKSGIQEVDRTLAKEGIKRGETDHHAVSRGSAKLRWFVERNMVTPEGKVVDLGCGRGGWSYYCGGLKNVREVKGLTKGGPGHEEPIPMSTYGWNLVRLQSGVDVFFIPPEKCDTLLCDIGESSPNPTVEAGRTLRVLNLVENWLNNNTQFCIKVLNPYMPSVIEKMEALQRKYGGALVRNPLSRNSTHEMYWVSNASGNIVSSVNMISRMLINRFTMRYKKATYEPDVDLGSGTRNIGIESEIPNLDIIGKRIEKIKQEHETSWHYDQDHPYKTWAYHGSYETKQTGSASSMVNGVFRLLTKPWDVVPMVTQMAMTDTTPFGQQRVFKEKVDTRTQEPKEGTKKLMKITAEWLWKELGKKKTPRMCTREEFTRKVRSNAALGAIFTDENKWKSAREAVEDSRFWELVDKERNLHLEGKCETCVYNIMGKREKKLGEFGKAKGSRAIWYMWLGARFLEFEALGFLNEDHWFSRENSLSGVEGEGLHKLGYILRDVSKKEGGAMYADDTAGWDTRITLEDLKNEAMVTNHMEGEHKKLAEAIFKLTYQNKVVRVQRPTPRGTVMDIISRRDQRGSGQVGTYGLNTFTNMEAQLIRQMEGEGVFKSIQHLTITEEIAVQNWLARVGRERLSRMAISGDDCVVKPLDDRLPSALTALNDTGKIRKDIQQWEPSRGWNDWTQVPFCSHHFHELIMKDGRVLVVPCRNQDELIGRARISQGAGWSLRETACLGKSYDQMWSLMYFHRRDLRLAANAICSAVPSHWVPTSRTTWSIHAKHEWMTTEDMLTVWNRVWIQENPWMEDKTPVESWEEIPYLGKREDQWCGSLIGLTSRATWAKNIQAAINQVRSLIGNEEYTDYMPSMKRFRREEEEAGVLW
Chain of 5-hydroxytryptamine receptor 2A (P35363 whole entry): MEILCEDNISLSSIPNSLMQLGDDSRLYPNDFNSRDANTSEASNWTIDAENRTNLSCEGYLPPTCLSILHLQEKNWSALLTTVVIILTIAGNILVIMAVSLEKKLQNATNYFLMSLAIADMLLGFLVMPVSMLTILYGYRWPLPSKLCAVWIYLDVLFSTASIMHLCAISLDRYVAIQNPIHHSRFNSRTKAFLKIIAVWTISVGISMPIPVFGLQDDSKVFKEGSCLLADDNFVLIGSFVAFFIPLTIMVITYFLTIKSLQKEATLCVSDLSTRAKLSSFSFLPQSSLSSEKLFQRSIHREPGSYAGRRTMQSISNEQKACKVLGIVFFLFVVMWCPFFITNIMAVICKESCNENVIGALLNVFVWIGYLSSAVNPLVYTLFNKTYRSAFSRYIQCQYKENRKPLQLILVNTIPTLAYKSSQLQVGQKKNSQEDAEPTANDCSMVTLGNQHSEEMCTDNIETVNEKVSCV
Chain of Dual specificity protein phosphatase 3 (P51452 whole entry): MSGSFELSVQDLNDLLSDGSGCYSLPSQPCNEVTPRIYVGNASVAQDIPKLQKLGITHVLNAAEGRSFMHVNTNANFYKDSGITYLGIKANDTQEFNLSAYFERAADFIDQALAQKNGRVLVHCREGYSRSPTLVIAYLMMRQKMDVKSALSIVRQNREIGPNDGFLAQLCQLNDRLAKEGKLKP
Chain of Tyrosine-protein phosphatase non-receptor type 5 (P54829 whole entry): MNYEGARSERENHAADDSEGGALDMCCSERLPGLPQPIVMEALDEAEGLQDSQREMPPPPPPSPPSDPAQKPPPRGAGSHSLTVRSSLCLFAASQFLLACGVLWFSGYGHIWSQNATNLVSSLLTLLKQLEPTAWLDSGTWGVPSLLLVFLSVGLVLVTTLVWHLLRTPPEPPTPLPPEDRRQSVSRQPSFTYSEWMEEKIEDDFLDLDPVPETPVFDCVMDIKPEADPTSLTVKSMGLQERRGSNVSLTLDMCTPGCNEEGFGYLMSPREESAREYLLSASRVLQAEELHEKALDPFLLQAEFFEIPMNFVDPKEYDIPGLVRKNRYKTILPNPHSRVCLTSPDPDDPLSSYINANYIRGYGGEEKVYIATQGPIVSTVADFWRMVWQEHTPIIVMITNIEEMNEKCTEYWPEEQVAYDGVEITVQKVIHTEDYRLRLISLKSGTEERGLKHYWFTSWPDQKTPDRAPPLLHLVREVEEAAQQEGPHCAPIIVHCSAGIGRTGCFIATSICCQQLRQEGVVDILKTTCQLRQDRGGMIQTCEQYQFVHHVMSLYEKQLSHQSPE
Chain of Tyrosine-protein phosphatase non-receptor type 11 (Q06124 whole entry, the tested form may be a part): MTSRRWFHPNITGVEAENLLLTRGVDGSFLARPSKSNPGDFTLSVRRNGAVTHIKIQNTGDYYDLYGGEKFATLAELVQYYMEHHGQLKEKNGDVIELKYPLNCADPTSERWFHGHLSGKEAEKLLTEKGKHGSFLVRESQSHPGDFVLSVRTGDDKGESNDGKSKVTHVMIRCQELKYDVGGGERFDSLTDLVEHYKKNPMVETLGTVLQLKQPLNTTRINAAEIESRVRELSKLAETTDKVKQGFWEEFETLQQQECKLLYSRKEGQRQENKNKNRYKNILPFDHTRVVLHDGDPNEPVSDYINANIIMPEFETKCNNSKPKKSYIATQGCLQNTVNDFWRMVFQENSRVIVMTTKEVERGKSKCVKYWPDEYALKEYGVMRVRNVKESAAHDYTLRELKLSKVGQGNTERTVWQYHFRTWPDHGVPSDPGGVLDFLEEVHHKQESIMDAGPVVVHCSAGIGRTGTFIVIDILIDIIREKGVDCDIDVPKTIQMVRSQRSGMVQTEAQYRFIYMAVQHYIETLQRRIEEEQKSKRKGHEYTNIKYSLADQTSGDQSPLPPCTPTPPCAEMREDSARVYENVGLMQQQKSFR
Chain of Tyrosyl-DNA phosphodiesterase 2 (O95551 whole entry): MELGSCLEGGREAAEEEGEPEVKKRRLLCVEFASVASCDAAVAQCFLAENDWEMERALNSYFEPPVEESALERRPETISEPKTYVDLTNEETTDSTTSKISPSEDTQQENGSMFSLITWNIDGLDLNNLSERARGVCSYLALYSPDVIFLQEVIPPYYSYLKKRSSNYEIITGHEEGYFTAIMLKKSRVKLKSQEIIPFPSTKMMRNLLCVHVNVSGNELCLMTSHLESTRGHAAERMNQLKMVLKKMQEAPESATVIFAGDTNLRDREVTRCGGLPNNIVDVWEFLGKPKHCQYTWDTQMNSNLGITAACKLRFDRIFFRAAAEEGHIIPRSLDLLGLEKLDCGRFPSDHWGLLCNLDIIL
Chain of Mu-type opioid receptor (P35372 whole entry): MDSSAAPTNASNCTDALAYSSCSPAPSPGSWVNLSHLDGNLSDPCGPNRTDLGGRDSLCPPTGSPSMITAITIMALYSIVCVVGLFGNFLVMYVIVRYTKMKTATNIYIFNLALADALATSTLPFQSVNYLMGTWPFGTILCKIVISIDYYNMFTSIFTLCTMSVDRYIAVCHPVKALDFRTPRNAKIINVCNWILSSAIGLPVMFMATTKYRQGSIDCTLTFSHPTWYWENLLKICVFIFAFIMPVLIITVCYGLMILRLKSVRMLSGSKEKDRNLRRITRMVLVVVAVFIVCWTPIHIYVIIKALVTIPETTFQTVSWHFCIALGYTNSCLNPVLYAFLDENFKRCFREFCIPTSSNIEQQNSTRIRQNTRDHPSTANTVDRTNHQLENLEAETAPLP
Chain of Botulinum neurotoxin type F (P30996 1-436 limits assumed): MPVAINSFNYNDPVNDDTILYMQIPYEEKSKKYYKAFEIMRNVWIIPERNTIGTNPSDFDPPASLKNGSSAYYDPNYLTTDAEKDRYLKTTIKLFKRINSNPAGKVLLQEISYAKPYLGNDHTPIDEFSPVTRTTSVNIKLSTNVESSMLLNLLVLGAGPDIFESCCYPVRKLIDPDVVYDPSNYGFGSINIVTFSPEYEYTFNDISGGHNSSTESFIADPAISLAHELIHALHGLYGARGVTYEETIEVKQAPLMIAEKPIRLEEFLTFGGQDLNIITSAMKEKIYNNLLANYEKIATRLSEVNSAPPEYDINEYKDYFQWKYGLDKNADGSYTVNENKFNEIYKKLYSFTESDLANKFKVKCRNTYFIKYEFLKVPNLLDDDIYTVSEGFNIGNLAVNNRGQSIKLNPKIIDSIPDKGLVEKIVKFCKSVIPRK

SMILES: O=S(=O)(Nc1ccc(O)c2ccccc12)c1cccs1
- IC50 [1]: > 128 µM (inactive)
- IC50 (Hexokinase HKDC1): 9.75 µM (active)
- IC50 (Genome polyprotein): 62.6 µM (active)

SMILES: COc1ccc(CN2CCN(c3ncccn3)CC2)c(OC)c1
- EC50 (Mu-type opioid receptor): 92.5 µM (inactive)
- EC50 [2]: 0.322 µM (active)

SMILES: CN(C)CCCN1c2ccccc2Sc2ccc3ccccc3c21
- CC50 (Vero [3]): 16.2 µM (active)
- AC50 (BHK-21): 36 µM (active)

SMILES: Cc1ccc(C(C)C)c(OCCNC(=O)c2ccccc2O)c1
- AC50 (Vero [4]): 1.45 µM (active)
- AC50 (A549): 2.13 µM (active)

SMILES: Cc1cc2cc(CNC(=O)c3ccc(S(=O)(=O)N(C)C)cc3)ccc2n1C
- IC50 (Protein skinhead-1): > 100 µM (inactive)
- IC50 [5]: > 66 µM (inactive)
- EC50 [6]: > 20 µM (inactive)
- IC50 [7]: > 66 µM (inactive)

SMILES: NC(=O)c1cc2ccccc2o/c1=N\NC(=O)c1ccccc1O
- IC50 [8]: 24.2 µM (inactive)
- IC50 [9]: 1.93 µM (active)
- IC50 [10]: 6.57 µM (active)
- IC50 [11]: 90.7 µM (inactive)
- IC50 [12]: 5.39 µM (active)
- IC50 [13]: 7.89 µM (active)

— ChEMBL document CHEMBL1201862, “PubChem BioAssay data set” (2004)
